≈ marks a conversion by molar mass, not a printed value.
Columns and labels:
[1] = target: T1, PBP2a (Staphylococcus aureus, UniProt P07944); test: PBP2a enzymatic inhibition assay (fluorescein-labeled ampicillin, residual penicillin binding activity); type: biochemical, Staphylococcus aureus ATCC 43300
T1 construct: made in house
Experimental: PBP2a from Staphylococcus aureus ATCC 43300 and PBP5fm from Enterococcus faecium D63r were overproduced and purified as described previously, [18].
Each of the purified PBPs (2.5 µM) were first incubated with 1 mM potential inhibitor in 100 mM phosphate buffer, 0.01% Triton X-100[19], pH 7, for 4 h at 30°C. Then, 25 µM fluorescein-labeled ampicillin[20] was added to detect the residual penicillin binding activity (RA). The samples were further incubated for 30 min at 37°C in a total volume of 20 µL. Denaturation buffer was added (0.1 M Tris/HCl, pH 6.8, containing 25% glycerol, 2% SDS, 20% β-mercaptoethanol and 0.02% bromophenol blue) and the samples were heated to 100°C for 1 min. The samples were then loaded onto a 10% SDS-acrilamide gel (10×7 cm) and electrophoresis was performed for 45 min at 180 V (12 mA). Detection and quantification of the RAs were with Molecular Image FX equipment and Quantity One software (BioRad, Hercules, CA, USA). Three independent experiments were carried out for each inhibitor.

[2] = tested on: Bacillus subtilis ATCC 6633; test: In-vitro antibacterial activity (MIC, broth microdilution); type: cell-based; conditions: ATCC6633
Experimental: (§1) Determination of the antibacterial activities was carried out on microtiter plates, in 200 µL (final volume) of Müeller-Hinton Broth (MHB), following EUCAST (European Committee on Antimicrobial Susceptibility testing)/CLSI (Clinical and Laboratory Standard Institute) recommended procedures, [25]. The compounds were solubilized in MHB, just before use. Inocula were prepared for each strain by resuspending isolated colonies from 18 h cultured plates. Equivalents of 0.5 Mac Farland turbidity standards (approximately 1×10^8 CFU mL^−1) were prepared in saline solution ([…]) and then diluted 200-fold in MBH.

[3] = tested on: Citrobacter freundii ATCC 8090; test: as above; type: cell-based; conditions: ATCC8090
Experimental: as §1

[4] = tested on: Enterococcus faecalis ATCC 29212; test: as above; type: cell-based; conditions: ATCC29212
Experimental: as §1

[5] = tested on: Enterococcus faecalis ATCC 7937; test: as above; type: cell-based; conditions: ATCC7937
Experimental: as §1

[6] = tested on: Enterococcus faecium ATCC 19434; test: as above; type: cell-based; conditions: ATCC19434
Experimental: as §1

[7] = tested on: Enterococcus hirae ATCC 8790; test: as above; type: cell-based; conditions: ATCC8790
Experimental: as §1

[8] = tested on: Escherichia coli ATCC 8739; test: as above; type: cell-based; conditions: ATCC8739
Experimental: as §1

[9] = tested on: Klebsiella pneumoniae ATCC 13883; test: as above; type: cell-based; conditions: ATCC13883
Experimental: as §1

[10] = tested on: Listeria innocua ATCC 33090; test: as above; type: cell-based; conditions: ATCC33090
Experimental: as §1

[11] = tested on: Listeria monocytogenes ATCC 14780; test: as above; type: cell-based; conditions: ATCC14780
Experimental: as §1

[12] = tested on: Micrococcus luteus ATCC 9341; test: as above; type: cell-based; conditions: ATCC9341
Experimental: as §1

[13] = tested on: Proteus mirabilis ATCC 29936; test: as above; type: cell-based; conditions: ATCC29936
Experimental: as §1

[14] = tested on: Pseudomonas aeruginosa ATCC 27853; test: as above; type: cell-based; conditions: ATCC27853
Experimental: as §1

[15] = tested on: Staphylococcus aureus ATCC 25923; test: as above; type: cell-based; conditions: ATCC25923
Experimental: as §1

[16] = tested on: Staphylococcus aureus ATCC 43300 (MRSA); test: as above; type: cell-based
Experimental: as §1

[17] = tested on: Staphylococcus aureus mp 1 (inducible MRSA); test: as above; type: cell-based
Experimental: as §1

[18] = tested on: Staphylococcus epidermidis ATCC 12228; test: as above; type: cell-based; conditions: ATCC12228
Experimental: as §1

[19] = tested on: Streptococcus pneumoniae ATCC 33400; test: as above; type: cell-based; conditions: ATCC33400
Experimental: as §1

[20] = tested on: Streptococcus pneumoniae ATCC 49619; test: as above; type: cell-based; conditions: ATCC49619
Experimental: as §1

[21] = tested on: Streptococcus pneumoniae D39; test: as above; type: cell-based
Experimental: as §1

[22] = tested on: S. aureus ATCC43300 resistant strain; test: Killing curves experiments; type: cell-based, Staphylococcus aureus; conditions: concentration equivalent to 4 times the MIC; data not shown

T1 sequence (P07944 whole entry): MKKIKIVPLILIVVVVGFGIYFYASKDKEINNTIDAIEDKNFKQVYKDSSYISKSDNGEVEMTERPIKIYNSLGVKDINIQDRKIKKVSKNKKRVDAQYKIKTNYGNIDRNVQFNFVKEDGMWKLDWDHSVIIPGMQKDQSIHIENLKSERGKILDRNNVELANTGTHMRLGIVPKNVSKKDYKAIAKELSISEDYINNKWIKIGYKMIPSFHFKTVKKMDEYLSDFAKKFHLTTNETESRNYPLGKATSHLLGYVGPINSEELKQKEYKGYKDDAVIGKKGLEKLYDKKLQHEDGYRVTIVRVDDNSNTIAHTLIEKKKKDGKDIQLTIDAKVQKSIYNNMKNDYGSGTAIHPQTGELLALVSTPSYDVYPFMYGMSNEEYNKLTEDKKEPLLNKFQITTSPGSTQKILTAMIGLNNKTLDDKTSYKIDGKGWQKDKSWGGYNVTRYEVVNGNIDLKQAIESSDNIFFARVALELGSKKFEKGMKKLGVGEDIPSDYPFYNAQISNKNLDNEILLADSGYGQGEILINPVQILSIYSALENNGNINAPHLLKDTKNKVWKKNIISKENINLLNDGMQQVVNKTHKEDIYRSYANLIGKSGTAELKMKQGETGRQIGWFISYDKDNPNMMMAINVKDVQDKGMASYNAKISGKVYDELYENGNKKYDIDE

CCCCOc1ccc2cc(S(=O)(=O)Nc3ccccc3C(=O)O)ccc2c1 [compound 1, 2-(6-butoxynaphthalene-2-sulfonamido)benzoic acid]
remaining activity at 1000 µM ([1]; 4 h, residual activity of the enzyme at 1 mM inhibitor, 0.01% Triton X-100, mean of three experiments, read-out: PBP2a RA [%]): 0% | IC50 ([1]; in the presence of 0.01% Triton X-100): 97 µM | MIC [2]: 2 µg/mL (≈ 5.01 µM) | MIC [3]: > 1020 µg/mL | MIC [4]: 32 µg/mL (≈ 80.1 µM) | MIC [5]: 16 µg/mL (≈ 40.1 µM) | MIC [6]: 64 µg/mL (≈ 160 µM) | MIC [7]: 16 µg/mL (≈ 40.1 µM) | MIC [8]: > 1020 µg/mL | MIC [9]: > 1020 µg/mL | MIC [10]: 16 µg/mL (≈ 40.1 µM) | MIC [11]: 16 µg/mL (≈ 40.1 µM) | MIC [12]: 2 µg/mL (≈ 5.01 µM) | MIC [13]: > 1020 µg/mL | MIC [14]: > 1020 µg/mL | MIC [15]: 32 µg/mL (≈ 80.1 µM) | MIC [16]: 32 µg/mL (≈ 80.1 µM) | MIC [17]: 32 µg/mL (≈ 80.1 µM) | MIC [18]: 32 µg/mL (≈ 80.1 µM) | MIC [19]: 1 µg/mL (≈ 2.5 µM) | MIC [20]: 1 µg/mL (≈ 2.5 µM) | MIC [21]: 1 µg/mL (≈ 2.5 µM) | killing curves, bacterial count [22]: no viable cells were observed after 120 min
